Reference: PMC9289467, “A Novel Multifunctional 5,6-Dimethoxy-Indanone-Chalcone-Carbamate Hybrids Alleviates Cognitive Decline in Alzheimer’s Disease by Dual Inhibition of Acetylcholinesterase and Inflammation” (Frontiers in Aging Neuroscience, 2022)

Legend:
NeuN, MAP2 = experiment: NeuN and MAP2 co-immunostaining and western blot, hippocampus; assay type: in vivo, APP/PS1 mice
Protocol: (§1) APP/PS1 mice of ages 6 months were randomly divided into vehicle (APP/PS1, n = 10) and treatment groups (AP5, n = 10), which were intragastrically administered with AP5 (40 mg/kg) once daily for consecutive 5 months. AP5 was dissolved in distilled water containing 1% sodium carboxymethyl cellulose.
The fixed hemibrains were paraffin-embedded and sectioned in the coronal plane. The slices were deparaffinized with xylene and rehydrated by a series of gradient alcohols. Antigen retrieval through microwave boiling was performed with 10 mM sodium citrate solution at pH 6.0. The slices were cooled down to room temperature and then rinsed in PBS solution. Then the slices were incubated in 10% goat serum blocking solution for 1 h followed by primary antibodies overnight at 4°C. The next day, the slides were labeled with biotinylated or fluorescent secondary antibodies. Slices were washed three times with PBS before being mounted. Images were captured using a SpinSR10 scanner (Olympus, Tokyo, Japan).
Frozen hippocampus and cortex were homogenized in pre-cooling RIPA buffer (P0013B, Beyotime) supplemented with 1 mM phenylmethanesulfonyl fluoride (PMSF) and cocktail of protease and phosphatase inhibitors. […] The membranes were incubated with 5% fat-free milk blocking solution for 1 h at room temperature and then probed with primary antibodies overnight at 4°C. […] Densitometric analysis was performed using Quantity One software (Bio-Rad, Berkeley, CA, United States).
Briefly, for ACh assay, the reactions were started by adding 100 µL of the Amplex Red reagent, HRP, choline oxidase, AChE working solution to each microplate well containing the controls and samples. […] Assay plates were incubated at room temperature for 30 min and protected from light, followed by detecting fluorescence of resorufin (λex = 544 nm, λem = 590 nm) in a fluorescence microplate reader. […]
(1:100, BAF2655, R&D, Minneapolis, MN, USA). […] For the quantification of Aβ plaque-associated microglia and […]

[1] = system: spatial recognition memory; experiment: Y-maze; assay type: in vivo; conditions: after training for 3 h, relative to APP/PS1 mice
Protocol: as §1
To investigate whether AP5 treatment plays a key role in cognition improvement of APP/PS1 mice models, the five different behavioral tests were sequentially carried out in the following order: open field, novel object recognition task, spatial object-location task, Y-maze, and Morris water maze (MWM). AP5 was also administered daily during the test periods. […]
For the spatial object location task (an object moved to a new location), mice first explored the two objects placed in two corners of the open field for 5 min in training period. After 1 h or 24 h, the mice received a 5 min retention trial with a new spatial configuration with an object moved from one corner to the opposite corner of the open field.The discrimination index was calculated and defined as: (time spent exploring the displaced object-time spent exploring nondisplaced objects) / total exploration time for the two objects during the 5 min retention trial. […]
guided to platform and allowed to stay on it for 30 s. The time (escape latency) for each mouse to find the way and reach the target platform was analyzed. […]

[2] = hippocampal CA1 pyramidal layer

**Q.** How did the MAP2 signals (NeuN, MAP2; [2]) turn out when `CCN(C)C(=O)Oc1cccc(/C=C2\Cc3cc(OC)c(OC)cc3C2=O)c1` [AP5, (E)-3-((5,6-dimethoxy-1-oxo-1,3-dihydro-2H-inden-2-ylidene)-methyl)phenylethyl(methyl)carbamate] was run?
**A.** The MAP2 signals was “restored”.

**Q.** What about the “average number of NeuN+ cells” value (NeuN, MAP2; [2]) of the same compound?
**A.** Its value is “restored”.

**Q.** What about the “protein expression of NeuN and MAP2” value (NeuN, MAP2; western blot, hippocampus) of the same compound?
**A.** The value was “markedly increased”.

**Q.** What about the preference index [1] of the same compound?
**A.** Its preference index is “marked elevation”.
